Test results taken from US11590148B2, “Use of calcifediol in bariatric surgery patients” (OPKO IRELAND GLOBAL HOLDINGS, LTD., priority 2018, dated 2023).

What was measured:
Format in all cases: in vivo, human
[1] = tested on: patients who are candidates for Roux-en-Y Surgery; test: Efficacy study in Roux-en-Y surgery patients (6-month)
Procedure: The effectiveness of oral sustained-release 25-hydroxyvitamin D3 in restoring serum total 25-hydroxyvitamin D to optimal levels (>30 ng/mL) and reducing parathyroid hormone level, is examined in a 6-month study of adult male and female patients who are candidates for Roux-en-Y Surgery for weight reduction. In a controlled study, patients are treated with sustained-release 25-hydroxyvitamin D3 (softgel capsules containing 25-hydroxyvitamin D3).
A total of 60 subjects participate in this study, all of whom have serum total 25-hydroxyvitamin D levels less than 30 ng/mL at the time of enrollment and serum intact parathyroid hormone levels greater than 70 pg/mL as evidence of SHPT. All subjects receive a multivitamin therapy including calcium (up to 1,000 mg daily) and cholecalciferol (3000 IU daily) following surgery, and abstain from receiving other Vitamin D therapy and significant sun exposure. Serum total 25-hydroxyvitamin D, serum intact parathyroid hormone, serum calcium, serum phosphorus, urinary calcium, urinary phosphorus, and urinary creatinine are measured from the day of surgery, and at monthly intervals following surgery.
After 2 months, the daily calcium dosage is maintained unchanged, and the cholecalciferol supplement is discontinued, while daily administration of sustained-release 25-hydroxyvitamin D3 (softgel capsules containing 30 μg 25-hydroxyvitamin D3) is initiated and continued for four months.

[2] = tested on: patients having undergone bariatric surgery (bypass of at least the duodenum); test: Long-term efficacy study in Roux-en-Y surgery patients (one year, randomized, double-blind, vs cholecalciferol)
Procedure: The effectiveness of oral sustained-release 25-hydroxyvitamin D3 in restoring serum total 25-hydroxyvitamin D to optimal levels (>30 ng/mL) and increasing bone mineral density, is examined in a one year study of adult male and female patients having undergone bariatric surgery for weight reduction, wherein the surgery included bypass of at least the duodenum. In a randomized, double-blind controlled study, patients are treated with sustained-release 25-hydroxyvitamin D3 or cholecalciferol.
A total of 200 subjects participate in this study. All subjects participating in this study are aged 18 years or older, have bone mineral density T-scores between −2.0 and −4.0 as assessed by dual energy x-ray absorptiometry (DEXA), and have serum total 25-hydroxyvitamin D levels less than 30 ng/mL at the time of enrollment. All subjects receive a multivitamin therapy including calcium (up to 1,000 mg daily) and either cholecalciferol (3000 IU daily) or multiple sustained-release 25-hydroxyvitamin D3 (softgel capsules containing 30 μg 25-hydroxyvitamin D3), and abstain from receiving other Vitamin D therapy and significant sun exposure at study start and continuing through study termination.
After 3 months, the daily 25-hydroxyvitamin D3 softgel capsule dosage is maintained unchanged in patients whose serum total 25-hydroxyvitamin D is between 50 and 90 ng/mL, and increased by one capsule in patients whose serum total 25-hydroxyvitamin D is below 50 ng/mL.
Serum total 25-hydroxyvitamin D, plasma iPTH, serum calcium, serum phosphorus, urinary calcium, urinary phosphorus, and urinary creatinine are measured from the day of surgery, and at monthly intervals. Bone mineral density at four sites (total hip, femoral neck, ⅓radius, and lumbar spine) is determined at quarterly intervals by DEXA.

[3] = tested on: patients with intractable VDI having undergone bariatric surgery; test: Long-term efficacy study in bariatric surgery patients (52-week, ERC)
Procedure: The effectiveness of oral extended-release 25-hydroxyvitamin D3 (ERC) in raising serum total 25-hydroxyvitamin D to ≥30 ng/mL and reducing plasma iPTH by at least 30% from pre-treatement baseline is examined in a 52-week study of male and female patients aged at least 18 years, with intractable VDI, and having undergone bariatric surgery. In a randomized, double-blind controlled study, patients receive ERC or matching placebo.
Subjects are without any disease state or physical condition that might impair evaluation of safety or which would interfere with study participation, including having serum albumin ≤3.0 g/dL; and serum transaminase (alanine aminotransferase [ALT], glutamic-pyruvic transaminase [SGPT], aspartate aminotransferase [AST] or glutamic-oxaloacetic transaminase [SGOT])>2.5 times the upper limit of normal at screening.
When otherwise confirmed eligible at Visit 1, if taking more than 1,500 mg per day of elemental calcium (from diet and supplements), subjects reduce calcium use (to ≤1,500 mg per day) for the duration of the study.
When otherwise confirmed eligible at Visit 1, if taking bone metabolism therapies that may interfere with study endpoints, subjects discontinue use of these agents for the duration of the study. […]
Blood samples are collected at weekly, biweekly or monthly intervals during the pre-treatment period, the 52-week treatment period, the 6-week post-treatment FU period, and at early termination (ET), if applicable. Key parameters analyzed in the collected samples include: plasma iPTH, serum calcium (corrected for serum albumin), serum phosphorus, serum total 25-hydroxyvitamin D, serum calcifediol, serum 1,25-dihydroxyvitamin D3, and serum 24,25-dihydroxyvitamin D3 (24,25D3). Vital signs (VS), and AEs are monitored at each study visit. Other parameters monitored less frequently include brief physical examinations (PEs) and clinical laboratory tests (hematology and clinical chemistries). […] Additional parameters, including serum FGF23 and serum bone turnover markers are monitored at specified intervals. […]

[4] = months 0-2, cholecalciferol 3000 IU daily
[5] = time zero and months 1 and 2, cholecalciferol 3000 IU daily following surgery
[6] = after 12 months of treatment, DEXA
[7] = once stable dosing has been achieved

C=C1CC[C@H](O)C/C1=C/C=C1\CCC[C@]2(C)[C@@H]([C@H](C)CCCC(C)C)CC[C@@H]12 [cholecalciferol]
change in mean serum total 25-hydroxyvitamin D level following surgery [1, 4]: only a moderate increase
change in serum intact parathyroid hormone level following surgery [1, 4]: no significant difference
group mean serum intact parathyroid hormone level [1, 5]: greater than 70 pg/mL
group mean serum total 25-hydroxyvitamin D level [1, 5]: less than 30 ng/mL
change in bone mineral density [2, 6]: insignificant changes or reductions
incidence of hypocalcemia [2, 7]: occur more frequently
severity / occurrence of secondary hyperparathyroidism [2, 7]: occur more frequently
change in bone mineral density [3, 6]: insignificant changes or reductions
incidence of hypocalcemia [3, 7]: occur more frequently
severity / occurrence of secondary hyperparathyroidism [3, 7]: occur more frequently
